The values that follow come from publication PMC7217186 (The Febs Journal, 2019).

The target of the experiment is T1, TKS (tetraketide synthase) (Cannabis sativa, UniProt B1Q2B6).
T1 construct: gene OLS; codon-optimised gene in pETM11, N-terminal TEV-cleavable His6 tag, cut from wild type after purification; E. coli BL21(DE3); dimer (two dimers in asymmetric unit); Cys157 oxidised to sulfinic acid in crystal
As to the kind of experiment: LC-MS of products (olivetol, PDAL, HTAL). Type of experiment: biochemical. As to conditions: 10 μM hexanoyl-CoA, 30 μM malonyl-CoA, 10 μM enzyme, 25 mM Tris pH 8, 150 mM NaCl, 5% glycerol, 25 °C, overnight.

T1 sequence (B1Q2B6 2-385): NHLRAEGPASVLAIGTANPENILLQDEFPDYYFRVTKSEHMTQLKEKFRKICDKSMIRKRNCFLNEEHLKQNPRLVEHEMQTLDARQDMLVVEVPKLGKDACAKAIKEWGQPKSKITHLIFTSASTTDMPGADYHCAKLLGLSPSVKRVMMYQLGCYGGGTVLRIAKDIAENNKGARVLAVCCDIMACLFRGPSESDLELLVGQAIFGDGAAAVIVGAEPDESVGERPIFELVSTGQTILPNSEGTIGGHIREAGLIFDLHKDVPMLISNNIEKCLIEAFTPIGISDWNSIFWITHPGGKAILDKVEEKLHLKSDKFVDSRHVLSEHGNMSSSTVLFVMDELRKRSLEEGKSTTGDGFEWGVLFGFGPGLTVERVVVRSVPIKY

`CCCCCC(=O)SCCNC(=O)CCNC(=O)[C@H](O)C(C)(C)COP(=O)(O)OP(=O)(O)OC[C@H]1O[C@@H](n2cnc3c(N)ncnc32)[C@H](O)[C@@H]1OP(=O)(O)O` [hexanoyl-CoA]: the “LC-MS of products (olivetol, PDAL, HTAL)” value was “A major product generated by TKS with malonyl‐CoA and hexanoyl‐CoA was identified as olivetol”.
The entry for `CC(C)(COP(=O)(O)OP(=O)(O)OC[C@H]1O[C@@H](n2cnc3c(N)ncnc32)[C@H](O)[C@@H]1OP(=O)(O)O)[C@@H](O)C(=O)NCCC(=O)NCCSC(=O)CC(=O)O` [malonyl-CoA] is “A major product generated by TKS with malonyl‐CoA and hexanoyl‐CoA was identified as olivetol”.
